From publication PMC8120209, “Longitudinal evaluation of a novel BChE PET tracer as an early in vivo biomarker in the brain of a mouse model for Alzheimer disease” (Theranostics, 2021)

Tests used:
[1] = molecular target: T1, norepinephrine transporter(h) (Homo sapiens, UniProt P23975); assay: biochemical; set-up: Eurofins SafetyScreen44 radioligand displacement, inhibition of control specific binding; conditions: read-out: % Inhibition of Control Specific Binding, Mean
T1 construct: gene SLC6A2

H1(h) = molecular target: T2, H1(h) (Homo sapiens, UniProt P35367); assay: biochemical; set-up: Eurofins SafetyScreen44 radioligand displacement, inhibition of control specific binding; conditions: read-out: % Inhibition of Control Specific Binding, Mean
T2 construct: gene HRH1

dopamine transporter(h) = molecular target: T3, dopamine transporter(h) (Homo sapiens, UniProt Q01959); assay: biochemical; set-up: Eurofins SafetyScreen44 radioligand displacement, inhibition of control specific binding; conditions: read-out: % Inhibition of Control Specific Binding, Mean
T3 construct: gene SLC6A3

5-HT7 (h) = molecular target: T4, 5-HT7 (h) (Homo sapiens, UniProt P34969); assay: biochemical; set-up: Eurofins SafetyScreen44 radioligand displacement, inhibition of control specific binding; conditions: read-out: % Inhibition of Control Specific Binding, Mean
T4 construct: gene HTR7

[2] = molecular target: AR(h) (agonist radioligand) (Homo sapiens, UniProt P10275); assay: biochemical; conditions: read-out: % Inhibition of Control Specific Binding Mean
[3] = molecular target: T5, 5-HT1B (antagonist radioligand) (Rattus norvegicus, UniProt P28564); assay: biochemical; conditions: read-out: % Inhibition of Control Specific Binding Mean
T5 construct: gene Htr1b

[4] = molecular target: T6, 5-HT1D (agonist radioligand) (Rattus norvegicus, UniProt P28565); assay: biochemical; conditions: read-out: % Inhibition of Control Specific Binding Mean
T6 construct: gene Htr1d

[5] = molecular target: T7, MAO-A (antagonist radioligand) (Rattus norvegicus, UniProt P21396); assay: biochemical; conditions: read-out: % Inhibition of Control Specific Binding Mean
T7 construct: gene Maoa

D3(h) = molecular target: T8, D3(h) (Homo sapiens, UniProt P35462); assay: biochemical; set-up: Eurofins SafetyScreen44 radioligand displacement, inhibition of control specific binding; conditions: read-out: % Inhibition of Control Specific Binding, Mean
T8 construct: gene DRD3

CB1(h) = molecular target: T9, CB1(h) (Homo sapiens, UniProt P21554); assay: biochemical; set-up: Eurofins SafetyScreen44 radioligand displacement, inhibition of control specific binding; conditions: read-out: % Inhibition of Control Specific Binding, Mean
T9 construct: gene CNR1

D2S(h) = molecular target: T10, D2S(h) (Homo sapiens, UniProt P14416); assay: biochemical; set-up: Eurofins SafetyScreen44 radioligand displacement, inhibition of control specific binding; conditions: read-out: % Inhibition of Control Specific Binding, Mean
T10 construct: gene DRD2; short isoform D2S

5-HT3(h) = molecular target: T11, 5-HT3(h) (Homo sapiens, UniProt P46098); assay: biochemical; set-up: Eurofins SafetyScreen44 radioligand displacement, inhibition of control specific binding; conditions: read-out: % Inhibition of Control Specific Binding, Mean
T11 construct: gene HTR3A

5-HT2B(h) = molecular target: T12, 5-HT2B(h) (Homo sapiens, UniProt P41595); assay: biochemical; set-up: Eurofins SafetyScreen44 radioligand displacement, inhibition of control specific binding; conditions: read-out: % Inhibition of Control Specific Binding, Mean
T12 construct: gene HTR2B

Lck kinase (h) = Lck kinase (h) (Homo sapiens, UniProt P06239); assay: biochemical; set-up: Eurofins SafetyScreen44 enzyme assays, inhibition of control specific activity; conditions: read-out: % Inhibition of Control Values, Mean
5-HT5a(h) = molecular target: T13, 5-HT5a(h) (Homo sapiens, UniProt P47898); assay: biochemical; set-up: Eurofins SafetyScreen44 radioligand displacement, inhibition of control specific binding; conditions: read-out: % Inhibition of Control Specific Binding, Mean
T13 construct: gene HTR5A

CCK1 (CCKA) (h) = molecular target: T14, CCK1 (CCKA) (h) (Homo sapiens, UniProt P32238); assay: biochemical; set-up: Eurofins SafetyScreen44 radioligand displacement, inhibition of control specific binding; conditions: read-out: % Inhibition of Control Specific Binding, Mean
T14 construct: gene CCKAR

D1(h) = molecular target: T15, D1(h) (Homo sapiens, UniProt P21728); assay: biochemical; set-up: Eurofins SafetyScreen44 radioligand displacement, inhibition of control specific binding; conditions: read-out: % Inhibition of Control Specific Binding, Mean
T15 construct: gene DRD1

PDE3A (h) = PDE3A (h) (Homo sapiens, UniProt Q14432); assay: biochemical; set-up: Eurofins SafetyScreen44 enzyme assays, inhibition of control specific activity; conditions: read-out: % Inhibition of Control Values, Mean
5-HT transporter (h) = molecular target: T16, 5-HT transporter (h) (Homo sapiens, UniProt P31645); assay: biochemical; set-up: Eurofins SafetyScreen44 radioligand displacement, inhibition of control specific binding; conditions: read-out: % Inhibition of Control Specific Binding, Mean
T16 construct: gene SLC6A4

V1a(h) = molecular target: T17, V1a(h) (Homo sapiens, UniProt P37288); assay: biochemical; set-up: Eurofins SafetyScreen44 radioligand displacement, inhibition of control specific binding; conditions: read-out: % Inhibition of Control Specific Binding, Mean
T17 construct: gene AVPR1A

N neuronal α7 (h) = molecular target: T18, N neuronal α7 (h) (Homo sapiens, UniProt P36544); assay: biochemical; set-up: Eurofins SafetyScreen44 radioligand displacement, inhibition of control specific binding; conditions: read-out: % Inhibition of Control Specific Binding, Mean
T18 construct: gene CHRNA7

sigma 1 (h) = molecular target: T19, sigma 1 (h) (Homo sapiens, UniProt Q99720); assay: biochemical; set-up: Eurofins SafetyScreen44 radioligand displacement, inhibition of control specific binding; conditions: read-out: % Inhibition of Control Specific Binding, Mean
T19 construct: gene SIGMAR1

β2(h) = molecular target: T20, β2(h) (Homo sapiens, UniProt P07550); assay: biochemical; set-up: Eurofins SafetyScreen44 radioligand displacement, inhibition of control specific binding; conditions: read-out: % Inhibition of Control Specific Binding, Mean
T20 construct: gene ADRB2

M5(h) = molecular target: T21, M5(h) (Homo sapiens, UniProt P08912); assay: biochemical; set-up: Eurofins SafetyScreen44 radioligand displacement, inhibition of control specific binding; conditions: read-out: % Inhibition of Control Specific Binding, Mean
T21 construct: gene CHRM5

µ-opioid receptor = molecular target: T22, µ-opioid receptor (Rattus norvegicus, UniProt P33535); assay: [3H]DAMGO radioligand displacement in rat cortex homogenates; type: binding
T22 construct: gene Oprm1; rat cortex homogenates

M4(h) = molecular target: T23, M4(h) (Homo sapiens, UniProt P08173); assay: biochemical; set-up: Eurofins SafetyScreen44 radioligand displacement, inhibition of control specific binding; conditions: read-out: % Inhibition of Control Specific Binding, Mean
T23 construct: gene CHRM4

δ (DOP) (h) = molecular target: T24, δ (DOP) (h) (Homo sapiens, UniProt P41143); assay: biochemical; set-up: Eurofins SafetyScreen44 radioligand displacement, inhibition of control specific binding; conditions: read-out: % Inhibition of Control Specific Binding, Mean
T24 construct: gene OPRD1

T1 sequence (P23975 whole entry): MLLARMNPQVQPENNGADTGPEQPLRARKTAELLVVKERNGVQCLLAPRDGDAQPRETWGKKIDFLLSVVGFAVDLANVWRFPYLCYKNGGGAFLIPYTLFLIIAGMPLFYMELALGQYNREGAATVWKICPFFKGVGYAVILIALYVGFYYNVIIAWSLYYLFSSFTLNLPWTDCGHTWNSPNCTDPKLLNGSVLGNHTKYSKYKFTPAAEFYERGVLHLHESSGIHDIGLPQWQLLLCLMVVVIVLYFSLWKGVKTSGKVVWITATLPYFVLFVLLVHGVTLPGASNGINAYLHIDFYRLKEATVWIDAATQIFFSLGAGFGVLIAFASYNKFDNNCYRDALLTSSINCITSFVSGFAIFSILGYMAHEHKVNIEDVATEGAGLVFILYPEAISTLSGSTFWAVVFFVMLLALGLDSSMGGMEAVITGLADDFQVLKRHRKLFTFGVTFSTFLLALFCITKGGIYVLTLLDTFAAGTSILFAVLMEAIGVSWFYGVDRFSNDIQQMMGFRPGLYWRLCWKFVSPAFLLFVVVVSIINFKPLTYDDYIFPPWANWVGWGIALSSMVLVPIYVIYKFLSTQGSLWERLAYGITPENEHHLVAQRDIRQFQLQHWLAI
T23 sequence (P08173 whole entry): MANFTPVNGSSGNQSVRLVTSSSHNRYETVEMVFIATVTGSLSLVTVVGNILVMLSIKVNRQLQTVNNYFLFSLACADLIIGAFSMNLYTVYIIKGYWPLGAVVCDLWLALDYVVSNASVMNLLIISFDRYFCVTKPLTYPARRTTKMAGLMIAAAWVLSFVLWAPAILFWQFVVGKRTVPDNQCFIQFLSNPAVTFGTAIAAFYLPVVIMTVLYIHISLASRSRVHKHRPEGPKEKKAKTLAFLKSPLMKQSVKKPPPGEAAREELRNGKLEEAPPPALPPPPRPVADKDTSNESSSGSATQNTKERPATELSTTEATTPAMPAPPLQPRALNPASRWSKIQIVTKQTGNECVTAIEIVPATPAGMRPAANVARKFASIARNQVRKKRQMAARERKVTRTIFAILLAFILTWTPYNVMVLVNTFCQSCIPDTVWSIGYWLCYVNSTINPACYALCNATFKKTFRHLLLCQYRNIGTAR
T19 sequence (Q99720 whole entry): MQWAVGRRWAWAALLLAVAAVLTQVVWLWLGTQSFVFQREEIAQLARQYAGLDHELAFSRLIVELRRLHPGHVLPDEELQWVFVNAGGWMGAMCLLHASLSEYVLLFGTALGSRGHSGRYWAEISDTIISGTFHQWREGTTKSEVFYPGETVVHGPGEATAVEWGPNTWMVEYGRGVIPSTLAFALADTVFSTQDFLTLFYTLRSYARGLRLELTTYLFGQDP
T11 sequence (P46098 whole entry): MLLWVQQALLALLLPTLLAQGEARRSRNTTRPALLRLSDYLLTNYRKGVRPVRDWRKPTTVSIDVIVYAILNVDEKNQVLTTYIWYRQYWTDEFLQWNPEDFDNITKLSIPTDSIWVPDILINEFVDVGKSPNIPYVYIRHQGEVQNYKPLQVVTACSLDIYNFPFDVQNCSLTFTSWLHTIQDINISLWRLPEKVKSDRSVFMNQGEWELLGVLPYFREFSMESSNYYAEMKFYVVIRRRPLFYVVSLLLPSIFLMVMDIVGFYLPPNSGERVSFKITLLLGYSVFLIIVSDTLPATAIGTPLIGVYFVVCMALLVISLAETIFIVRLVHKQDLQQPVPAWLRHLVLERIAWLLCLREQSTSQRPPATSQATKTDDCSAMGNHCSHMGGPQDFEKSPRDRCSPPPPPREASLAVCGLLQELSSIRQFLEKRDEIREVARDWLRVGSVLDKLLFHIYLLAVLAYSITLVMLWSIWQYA
Chain of Lck kinase (h) (P06239 whole entry): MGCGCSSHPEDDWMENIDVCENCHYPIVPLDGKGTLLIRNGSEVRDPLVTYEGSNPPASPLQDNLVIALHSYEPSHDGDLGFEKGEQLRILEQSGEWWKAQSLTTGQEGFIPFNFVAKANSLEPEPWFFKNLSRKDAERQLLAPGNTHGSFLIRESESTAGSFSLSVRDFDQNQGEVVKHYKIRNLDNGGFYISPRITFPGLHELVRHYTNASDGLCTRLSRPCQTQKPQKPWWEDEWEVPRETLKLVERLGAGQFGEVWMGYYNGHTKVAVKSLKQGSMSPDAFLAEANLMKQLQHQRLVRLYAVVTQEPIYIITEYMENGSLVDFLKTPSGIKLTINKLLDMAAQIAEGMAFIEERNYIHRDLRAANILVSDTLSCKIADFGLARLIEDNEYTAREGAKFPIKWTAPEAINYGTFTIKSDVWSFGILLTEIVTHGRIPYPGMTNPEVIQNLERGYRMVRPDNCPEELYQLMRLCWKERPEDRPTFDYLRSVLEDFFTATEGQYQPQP
T14 sequence (P32238 whole entry): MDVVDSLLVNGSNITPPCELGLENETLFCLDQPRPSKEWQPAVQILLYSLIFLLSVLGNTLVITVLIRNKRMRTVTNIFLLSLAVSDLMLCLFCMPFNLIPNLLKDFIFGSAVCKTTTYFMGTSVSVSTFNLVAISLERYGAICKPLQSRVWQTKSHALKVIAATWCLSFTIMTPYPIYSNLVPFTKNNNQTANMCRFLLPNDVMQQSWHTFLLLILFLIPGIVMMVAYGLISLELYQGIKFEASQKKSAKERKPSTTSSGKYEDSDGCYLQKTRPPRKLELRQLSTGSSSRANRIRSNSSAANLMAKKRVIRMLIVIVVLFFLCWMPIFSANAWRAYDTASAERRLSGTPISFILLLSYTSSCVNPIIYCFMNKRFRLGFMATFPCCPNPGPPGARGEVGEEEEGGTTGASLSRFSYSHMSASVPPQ
T12 sequence (P41595 whole entry): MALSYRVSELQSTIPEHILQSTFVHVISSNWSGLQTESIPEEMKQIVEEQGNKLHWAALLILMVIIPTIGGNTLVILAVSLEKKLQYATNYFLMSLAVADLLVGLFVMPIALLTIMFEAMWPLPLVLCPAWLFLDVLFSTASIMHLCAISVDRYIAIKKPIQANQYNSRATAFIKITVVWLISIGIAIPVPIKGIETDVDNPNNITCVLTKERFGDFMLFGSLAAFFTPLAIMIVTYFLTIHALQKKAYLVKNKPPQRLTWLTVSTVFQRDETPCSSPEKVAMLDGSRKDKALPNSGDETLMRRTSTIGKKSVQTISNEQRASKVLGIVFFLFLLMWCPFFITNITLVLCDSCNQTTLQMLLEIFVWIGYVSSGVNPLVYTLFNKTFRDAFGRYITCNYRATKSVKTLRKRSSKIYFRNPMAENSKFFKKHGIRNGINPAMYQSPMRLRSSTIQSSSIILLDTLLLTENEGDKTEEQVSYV
T15 sequence (P21728 whole entry): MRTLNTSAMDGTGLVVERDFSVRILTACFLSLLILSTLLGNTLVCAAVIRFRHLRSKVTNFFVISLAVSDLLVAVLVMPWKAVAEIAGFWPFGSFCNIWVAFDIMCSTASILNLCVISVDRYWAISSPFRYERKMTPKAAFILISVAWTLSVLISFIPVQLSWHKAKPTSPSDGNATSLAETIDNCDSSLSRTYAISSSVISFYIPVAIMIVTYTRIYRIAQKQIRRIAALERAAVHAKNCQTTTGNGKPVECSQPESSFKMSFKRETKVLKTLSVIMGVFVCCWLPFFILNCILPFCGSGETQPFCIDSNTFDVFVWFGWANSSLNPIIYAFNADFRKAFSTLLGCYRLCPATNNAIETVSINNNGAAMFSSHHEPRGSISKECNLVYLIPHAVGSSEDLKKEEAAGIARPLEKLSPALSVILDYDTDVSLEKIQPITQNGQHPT
T4 sequence (P34969 whole entry): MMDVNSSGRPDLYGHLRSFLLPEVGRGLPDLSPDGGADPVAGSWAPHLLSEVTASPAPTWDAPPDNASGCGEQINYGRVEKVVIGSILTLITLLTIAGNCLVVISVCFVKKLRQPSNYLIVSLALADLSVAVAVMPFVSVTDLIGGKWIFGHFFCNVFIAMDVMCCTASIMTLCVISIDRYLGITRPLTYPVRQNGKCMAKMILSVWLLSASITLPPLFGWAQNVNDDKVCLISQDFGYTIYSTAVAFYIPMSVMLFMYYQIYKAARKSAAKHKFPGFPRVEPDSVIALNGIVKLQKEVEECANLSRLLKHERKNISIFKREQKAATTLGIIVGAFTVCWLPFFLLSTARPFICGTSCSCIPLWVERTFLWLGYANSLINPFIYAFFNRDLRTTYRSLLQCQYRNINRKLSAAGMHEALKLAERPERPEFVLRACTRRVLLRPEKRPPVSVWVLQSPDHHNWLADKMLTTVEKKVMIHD
T20 sequence (P07550 whole entry): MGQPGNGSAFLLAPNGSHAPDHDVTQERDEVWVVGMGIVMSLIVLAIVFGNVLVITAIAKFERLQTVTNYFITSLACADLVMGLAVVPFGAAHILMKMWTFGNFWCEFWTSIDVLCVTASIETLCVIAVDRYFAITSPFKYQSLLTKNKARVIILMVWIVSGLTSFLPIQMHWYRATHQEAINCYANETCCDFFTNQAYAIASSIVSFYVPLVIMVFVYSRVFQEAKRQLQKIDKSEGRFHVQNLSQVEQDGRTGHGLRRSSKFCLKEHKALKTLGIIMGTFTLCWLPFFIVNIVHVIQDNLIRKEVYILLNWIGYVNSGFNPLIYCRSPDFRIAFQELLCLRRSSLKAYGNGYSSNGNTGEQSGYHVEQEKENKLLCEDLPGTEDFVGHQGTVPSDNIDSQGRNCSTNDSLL
T8 sequence (P35462 whole entry): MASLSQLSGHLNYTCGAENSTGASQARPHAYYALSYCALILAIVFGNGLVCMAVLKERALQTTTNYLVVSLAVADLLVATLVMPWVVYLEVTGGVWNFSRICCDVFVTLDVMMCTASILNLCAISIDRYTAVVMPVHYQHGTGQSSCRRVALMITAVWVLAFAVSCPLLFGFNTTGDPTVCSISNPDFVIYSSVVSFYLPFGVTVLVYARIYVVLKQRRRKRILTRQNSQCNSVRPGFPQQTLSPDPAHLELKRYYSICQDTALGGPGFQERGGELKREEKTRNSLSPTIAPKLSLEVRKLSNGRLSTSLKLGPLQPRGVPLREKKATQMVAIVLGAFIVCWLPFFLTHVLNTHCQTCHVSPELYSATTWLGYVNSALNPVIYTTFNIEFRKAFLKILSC

COCCN(CC1CCCN(Cc2ccccc2)C1)S(=O)(=O)c1ccc2ccccc2c1 (racemic) [compound 4, (±)N-((1-benzylpiperidin-3-yl)methyl)-N-(2-methoxyethyl)naphthalene-2-sulfonamide]
inhibition at 10 µM [1]: 34.1%
inhibition at 10 µM (H1(h)): 29%
inhibition at 10 µM (dopamine transporter(h)): 26%
inhibition at 10 µM (5-HT7 (h)): 84.3%
inhibition at 10 µM [2]: -6.6%
inhibition at 10 µM [3]: -12.8%
inhibition at 10 µM [4]: 33%
inhibition at 10 µM [5]: -0.2%
inhibition at 10 µM (D3(h)): 38.4%
inhibition at 10 µM (CB1(h)): -44.4%
inhibition at 10 µM (D2S(h)): 55.6%
inhibition at 10 µM (5-HT3(h)): -2.7%
inhibition at 10 µM (5-HT2B(h)): 88.4%
inhibition at 10 µM (Lck kinase (h)): 52.7%
inhibition at 10 µM (5-HT5a(h)): 42.5%
inhibition at 10 µM (CCK1 (CCKA) (h)): 21.9%
inhibition at 10 µM (D1(h)): 32.4%
inhibition at 10 µM (PDE3A (h)): 7%
inhibition at 10 µM (5-HT transporter (h)): 12.7%
inhibition at 10 µM (V1a(h)): 33.8%
inhibition at 10 µM (N neuronal α7 (h)): 18.2%
inhibition at 10 µM (sigma 1 (h)): 99.9%
inhibition at 10 µM (β2(h)): 10.5%
inhibition at 10 µM (M5(h)): 17.6%
Ki (µ-opioid receptor): 1800 nM
inhibition at 10 µM (M4(h)): 63.2%
inhibition at 10 µM (δ (DOP) (h)): 32.8%
